# Experimental data reported in US20030064426A1, “Reagents and methods for identifying and modulating expression of genes regulated by CDK inhibitors” (priority 2001, published 2003).
# Columns and labels:
# [1] = test system: induction of luciferase expression by p21 from the NK4 promoter in LuNK4p21 cells; assay: Luciferase assay in LuNK4p21 cell line (NK4 promoter-luciferase, IPTG-inducible p21); type: cell-based, human; details: for induction of luciferase expression by IPTG in the presence of NSAID: 20 hr treatment after 16 hrs with 50 μM IPTG
# Method: To develop a stably transfected cell line with p21-regulated luciferase expression, the NK4 promoter-luciferase construct, described in Example 8 and termed pLuNK4, was introduced into HT1080 p21-9 cells, which carry IPTG-inducible p21, by cotransfection with pBabePuro carrying puromycin N-acetyltransferase as a selectable marker. Transfection was carried out using LIPOFECTAMTNE 2000 (Life Technologies, Inc., Gaithersburg, Md.), using a 10:1 ratio of pLuNK4 and pBabePuro. Stable transfectants were selected using 1 μg/mL puromycin for 5 days.
# This assay was performed as follows. Cells were plated at a density of 40,000 cells/well in 12 well plates in 1 mL of media containing penicillin/streptomycin, glutamine and 10% fetal calf serum (FCS). After attachment, cells were treated with 50 μM IPTG or left untreated for different periods of time. Luciferase activity was then measured as described in Example 8 above. An additional aliquot was removed from the cell lysate to measure protein concentration using the Bio-Rad protein assay kit (Bradford assay). Luciferase activity for each sample was normalized to protein content and expressed as luciferase activity/μg protein.
# Luciferase assays were performed substantially as described in Example 9. Luciferase activity was measured after 16 hrs of incubation with or without 50 μM IPTG, followed by an additional 20 hr treatment in the presence or in the absence of 20 mM sodium salicylate, 1 mM sulindac, or 10 mM aspirin. […] NSAID concentrations were based on the pharmacologic concentrations of these agents in the serum of patients required for their anti-inflammatory properties (Yin et al., 1998, ibid.).
# [2] = test system: RNA expression of the endogenous p21-inducible genes in LuNK4p21 cells; assay: RT-PCR of endogenous p21-inducible genes in LuNK4p21 cells; type: cell-based, human
# Method: To determine whether NFκB-inhibiting NSAID inhibited not only the induction of transcription from the NK4 promoter but also RNA expression of the endogenous p21-inducible genes, LuNK4p21 cells were plated at 125,000 cells per well in 6-well plates and were either untreated or treated with 50 μM IPTG for 48 hrs (the period of time required for maximal stimulation of p21 -inducible genes; Chang et al., 2000, Proc. Natl. Acad. Sci. USA 97: 4291-4296), in the presence or in the absence of sulindac, at 250 μM, 500 μM or 1 mM concentrations. After this incubation, RNA was extracted from the cells using Qiagen RNeasy Mini Kit, and relative RNA levels of several p21-inducible genes were determined by reverse transcription-PCR (RT-PCR), essentially as described by Noonan et al. (1990, Proc. Natl. Acad. Sci. USA 87: 7160-7164), except that β-actin rather than β2-microglobulin was used for cDNA normalization. The PCR cycles were as follows: for the 1st cycle, 3 min for denaturation, 2 min for annealing and 2 min for extension, and the rest of cycles, 30 sec for denaturation; 30 sec for annealing; and 1 min for extension.
# [3] = test system: NFκB transcriptional activity (pNFkB-Luc) in HT1080 p21-9 cells; assay: Transient transfection assay with pNFkB-Luc in HT1080 p21-9 cells; type: cell-based, human; details: 50 μM IPTG three days; pNFkB-Luc mixed with negative control E1AΔN/C
# Method: Plasmid clones for each promoter construct were tested for p21-regulation by a transient transfection assay. Transient transfection of HT1080 p21-9 cells was carried out by electroporation, essentially as described in the Bio-Rad protocols. For each electroporation, p21-9 cells were grown to confluence in 15 cm plates using DMEM supplemented with 10% FC2 serum and containing penicillin, streptomycin and glutamine.. The cells were then trypsinized, resuspended in Opti-MEM medium (GibcoBRL) and spun down at 1,000 rpm in an IEC HN-SII centrifuge for 10 minutes. Following centrifugation the media were aspirated and the cells were again resuspended in Opti-MEM at a concentration of 18-20 million cells per ml. […] In preliminary experiments, cell survival and attachment after electroporation was determined to be approximately 33%. […] Luciferase activity was measured using a Turner 20/20 luminometer at 52.1% sensitivity with a 5 second delay period and 10-15 second integration time.
# To determine if IPTG-inducible p21 expression in HT 1080 p21-9 cells stimulates the transcriptional activity of NFκB, we have used transient transfection assays to investigate the effect of p21 induction on luciferase expression from the plasmid pNFkB-Luc, commercially available from Stratagene. […] The luciferase activity was measured and normalized to protein content in each sample.
# [4] = test system: mouse embryo fibroblast line C8; assay: Apoptosis assay in serum-starved C8 cells; type: cell-based
# Method: (§1) To verify the induction of secreted mitogenic and anti-apoptotic factors by p21, conditioned media from IPTG-treated p21-9 cells were tested to investigate whether they would have an effect on cell growth and apoptosis. In these experiments, conditioned media were prepared by plating 10^6 p21-9 cells per 15 cm plate in the presence of DMEM/10% FCS. The next day, IPTG was added to a final concentration of 50 μM, and this media was replaced three days later with DMEM supplemented with 0.5% FCS and 50 μM IPTG. Two days later (days 3-5 of IPTG treatment), this conditioned media was collected and stored at 4° C. up to 15 days before use. Control media were prepared by adding IPTG-free DMEM/0.5% FCS to untreated cells grown to the same density as IPTG-treated cells and collecting the media two days thereafter.
# The effect of this conditioned media on apoptosis was also determined. These experiments used a mouse embryo fibroblast line C8, immortalized by E1A. […] Apoptosis was analyzed by plating 3×10^5 C8 cells per 6-cm plate, and replacing the media on the following day with fresh media supplemented with 0.4% serum or with conditioned media (no fresh serum added). DNA content analysis and DAPI staining were carried out after 24 hrs and 48 hrs, and relative cell numbers were measured by methylene blue staining (Perry et al., 1992, Mutat. Res. 276: 189-197) after 48 hrs in low-serum media.
# [5] = test system: human fibrosarcoma cell line HS 15.T; assay: Mitogenic activity assay, 3H-thymidine incorporation; type: cell-based; details: HS 15.T cells
# Method: as §1
# The slow-growing human fibrosarcoma cell line HS 15.T was used to detect mitogenic activity in these conditioned media. For mitogenic activity assays, both types of conditioned media, as well as fresh media and 1:1 mixtures of conditioned media and fresh media were used to test mitogenic activity. In these experiments, the conditioned media were supplemented with 1% or 2% FCS. […] Cells were then collected and their ^3H-thymidine incorporation determined as described by Mosca et al. (1992, Mol. Cell. Biol. 12: 4375-4383).
# [6] = sulindac 250 μM, 500 μM or 1 mM
structure (smiles),measurement,setting,value
CC(C)Cc1ccc(C(C)C(=O)O)cc1 (stereo not shown) [ibuprofen],induction of luciferase expression by IPTG in the presence of NSAID,[1]; 25 μM,no significant difference
COc1ccc2c(c1)c(CC(=O)O)c(C)n2C(=O)c1ccc(Cl)cc1 [indomethacin],induction of luciferase expression by IPTG in the presence of NSAID,[1]; 25 μM,no significant difference
CC1=C(CC(=O)O)c2cc(F)ccc2/C1=C\c1ccc([S+](C)[O-])cc1 (stereo not shown) [sulindac],induction of luciferase expression by IPTG in the presence of NSAID,[1]; 1 mM sulindac,completely or almost completely abolished
same,effects of IPTG on the APP gene (RT-PCR),[2]; 250 and 500 μM sulindac,diminished
same,gene expression of all the other tested genes (RT-PCR),"[2]; absence of IPTG, sulindac 250 μM, 500 μM or 1 mM",dose-dependent increase
same,NK4 gene expression (RT-PCR),"[2]; absence of IPTG, sulindac 250 μM, 500 μM or 1 mM, 48 hrs",very little effect
same,ability of p21 to induce transcription for most of the tested genes,[2]; moderate dose of sulindac (250 μM),inhibits
same,effects of IPTG on the CTGF gene (RT-PCR),[2]; only by 250 μM sulindac,diminished
same,effects of IPTG on the Mac2-binding protein (Mac2-BP) gene (RT-PCR),[2]; only by 250 μM sulindac,diminished
same,effects of IPTG on the p66Shc gene (RT-PCR),[2]; only by 250 μM sulindac,diminished
same,NK4 RNA levels (RT-PCR),"[2]; presence of 50 μM IPTG, sulindac 250 μM, 500 μM or 1 mM, 48 hrs",dose-dependent decrease
same,gene expression of the other tested genes (RT-PCR),"[2]; presence of IPTG, highest tested dose of sulindac (1 mM)",did not decrease
same,IPTG-induced RNA levels of prosaposin (RT-PCR),[2]; [6],None of the tested sulindac concentrations produced a significant decrease
same,IPTG-induced RNA levels of superoxide dismutase 2 (SOD2) (RT-PCR),[2]; [6],None of the tested sulindac concentrations produced a significant decrease
same,"t-TGase RNA (RT-PCR), compared with NK4","[2]; with and without 50 μM IPTG, sulindac 250 μM, 500 μM or 1 mM, 48 hrs",Very similar results
"CC(C)S[C@@H]1O[C@H](CO)[C@H](O)[C@H](O)[C@H]1O [IPTG, isopropyl-β-thiogalactoside]",induction of pNFkB-Luc luciferase in the presence of IPTG,[3],up to 15 fold
same,effect of IPTG by itself on apoptosis,[4],no effect
same,effect of the addition of IPTG to fresh media on 3H-thymidine incorporation,[5],no effect
same,increase of luciferase expression by IPTG,"[1]; 50 μM IPTG, absence of NSAID",3-4 fold
same,increase in luciferase levels in IPTG-treated cells,"[1]; LuNK4p21 cell line, about 17 hrs",approximately 3 fold
"O=C([O-])c1ccccc1O.[Na+] [salicylate, sodium salicylate]",induction of luciferase expression by IPTG in the presence of NSAID,[1]; 20 mM sodium salicylate,completely or almost completely abolished
CC(=O)Oc1ccccc1C(=O)O [aspirin],induction of luciferase expression by IPTG in the presence of NSAID,[1]; 10 mM aspirin,completely or almost completely abolished
